We go through one compound from US6407058B1, “Modifying the permeability of physiological barriers” (Eisai Co., Limited, priority 1996, dated 2002).

Common to all, as to type: cell-based
Assay [1] concerns p100/p120. Put plainly: p100/p120 electrophoretic mobility (band shift) by immunoblotting, MDCK I cells. The note with it: 30 minutes. The procedure: (§1) The migration of the cellular proteins p100 and p120 during electrophoresis is increased following PDB-treatment of MDCK I cells. PDB (phorbol-12,13-dibutyrate) is a pharmacological activator of protein kinase C. MDCK I cells are a kidney derived epithelial cell line, with particularly well developed junctional complexes. Cells treated for 30 minutes with either 200 nM PDB (+) or vehicle (−) were then lysed into Laemmli sample buffer, and separated by electrophoresis using 6% acrylamide gels. Proteins were transferred to nitrocellulose and probed with antibodies to p100/p120, and then reprobed with E-cadherin and paxillin antibodies.
(§2) MDCK strain I and II cells were provided by Barry Gumbiner (memorial Sloan-Kettering Cancer Center, NY). LLC-PK1 and Caco-2 cells were obtained from the European Collection of Animal Cell Cultures. All cells were maintained at 37° C. under 5% CO2 in humidified air. MDCK strain I and II cells were maintained in MEM containing 10% FCS, 100 U/ml penicillin, 100 μg/ml streptomycin and 2 mM L-glutamine. Caco-2 cells were maintained in MEM containing 15% FCS, 1% non-essential amino acids and 1 μg/ml bovine insulin (Sigma I-6634). LLC-PK1 cells were grown in M199 (Gibco), 10% FCS, 100 U/ml penicillin, 100 μg/ml streptomycin and 2 mM L-glutamine. For whole cell lysate analysis, 10^5 cells were plated on 6.5 mm diameter, 0.4 μm, polycarbonate Transwell filters from Costar, in 0.25 ml of medium. The basolateral chamber contained 0.75 ml of medium. For immunoprecipitation, 5×10^5 cells were plated onto 24 mm Transwell filters, in 2 ml of medium, with 3 ml of medium in the lower chamber. Cells were used 4-7 days after plating. Tissue culture materials were from Gibco. Porcine brain endothelial cells were isolated and grown by modifications of a previously published procedure (Rubin et al., 1991). Brain capillary fragments were plated on dishes coated with rat tail collagen and human fibronectin. The cultures were fed every other day with growth medium composed of 50% astrocyte-conditioned medium and 50% Dulbecco's Modified Eagle Medium containing 10% plasma-derived serum, 125 μg/ml heparin, antibiotics and glutamine. They were incubated in a humidified atmosphere of 10% CO2 at 37° C. When the endothelial cells were approximately 50% confluent (after 4-6 days in culture), they were trypsinized and plated onto collagen-coated polycarbonate Transwell filters (6.5 mm diameter, 0.4 μm pore size, tissue culture treated, Costar Corp, Cambridge, Mass., U.S.A.) in the same medium (250 μl apically, 750 μl basolaterally). After 2-3 days on filters, the medium was switched to a 1:1 mixture of astrocyte-conditioned medium and a Dulbecco's Modified Eagle Medium-based, chemically defined medium (‘N2’, Rubin et al., 1991; Bottenstein and Sato, 1979). The final concentration of plasma-derived serum was 5%. Human umbilical vein endothelial cells were from Clonetics.
(§3) Whole cell lysates were prepared by rapidly replacing the culture medium in 6.5 mm with hot Laemmli sample buffer, followed by heating at 100° C. for 5 minutes. Immunoprecipitations were carried out at 4° C. Confluent monolayers of cells were washed rapidly with ice cold PBS (containing 0.9 mM CaCl2 and 0.5 mM MgCl2) before addition of 0.5 ml of the appropriate buffer. The filters were then gently scraped, and the lysate was removed and centrifuged at 14000× g. The supernatant was precleared with 10% (w/v) protein A-Sepharose in lysis buffer for 30-60 minutes. Appropriate primary antibodies were added to the lysate, and after 2-3 hours the immunecomplex was isolated, using rabbit anti-mouse secondary antibodies (Jackson Immunoresearch Labs Inc., West Grove, Pa.) and protein A-Sepharose. The beads were washed fives times with lysis buffer, and the bound protein was solubilized in SDS-sample buffer, followed by heating at 100° C. for 5 minutes.
Cell extracts or immunoprecipitates in SDS sample buffer were resolved by SDS-PAGE. […]
Background: In western blotting, separated proteins are transferred to a membrane and probed.

A further assay deals with E-cadherin. The assay can be described thus: E-cadherin electrophoretic mobility by immunoblotting, MDCK I cells. The note with it: 200 nM PDB, 30 minutes. The procedure: as §1
Cell extracts or immunoprecipitates in SDS sample buffer were resolved by SDS-PAGE. The slab gels were then equilibrated in buffer comprising; 48 mM Tris, 39 mM glycine, 20% methanol and 0.03% SDS. Proteins were transferred to nitrocellulose filters (Hybond ECL; Amersham), which were Ponceau S stained and then blocked for 2 hours at 37° C. with 1% BSA in PBS containing 0.05% Tween-20. Filters were then probed with p120 antibody, at a dilution of 1:2500. […] The filters were then extensively washed in PBS/0.5% Tween-20, and immunoreactive bands were detected by enhanced chemiluminescence (Amersham) following the manufacturers instructions.

The subject of assay [2] is p100/p120. The assay can be described thus: p100/p120 electrophoretic mobility, primary pig brain endothelial cells (PBECs). The note with it: PBECs, 200 nM PDB, 30 minutes. The procedure: Cells were treated with or without 200 nM PDB for 30 minutes, lysed into Laemmli sample buffer, separated by electrophoresis and analysed by immunoblotting with antibodies recognising p100 and p120.
as §2
as §3, with “A-Sepharose.” for “A-Sepharose. The beads were washed fives times with lysis buffer, and the bound protein was solubilized in SDS-sample buffer, followed by heating at 100° C. for 5 minutes.”

As for `CCCC(=O)O[C@@H]1[C@@H](C)[C@@]2(O)[C@@H](C=C(CO)C[C@]3(O)C(=O)C(C)=C[C@@H]23)[C@@H]2C(C)(C)[C@]12OC(=O)CCC` [PDB, Phorbol-12,13-dibutyrate], the “migration of p100 and p120 during electrophoresis” value in the assay on p100/p120 [1] (MDCK I cells, 200 nM PDB) is listed as “migrate as faster, tighter bands”. For the same compound, in the assay with p100/p120 [1] (MDCK I, PDB 1 to 200 nM), the “concentration of maximal effect on p100/p120 mobility” value stood at 100 nM. Besides, the “effect on E-cadherin migration” value in the assay on E-cadherin is reported as “no effect”. Moreover, the “mobility of p100 and p120” value in the assay with p100/p120 [2] is “the mobility of p100 and p120 increased”.
